Results: US8030303B2, “Salt of morpholine compound” (Mitsubishi Tanabe Pharma Corporation, priority 2006, dated 2011)

How the values were obtained:
[1] = Vapor sorption measurement (index of hygroscopicity), DVS-1 apparatus; assay type: physicochemical; conditions: relative humidity 70%, change calculated based on weight at relative humidity 0%, sample about 7 mg
Method: A vapor sorption measurement to provide an index of hygroscopicity was performed using a DVS-1 vapor sorption apparatus (manufactured by SMS) under the following conditions. A sample of about 7 mg was used and the relative humidity was increased by 10% within the range of from 0% to 90%, and finally to 95%. The weight change was recorded at each predetermined relative humidity, and the amount of change (%) was calculated based on the weight at relative humidity 0%. As the samples, compound 1-2 (hereinafter to be referred to as a free form) obtained according to the method described in WO 2006/028284, Example 2, compound 1-3 (hereinafter to be referred to as hydrobromide Form I crystal) obtained according to the method described in Example 1 and compound 2 (hereinafter to be referred to as hydrobromide Form II crystal) obtained according to the method described in Example 2 were used.

[2] = molecular target: T1, CCR3 (Homo sapiens, UniProt P51677); conditions: known from WO2006/028284, Table 1 of Experimental Example 1; cited from earlier work
T1 sequence (P51677 1-355): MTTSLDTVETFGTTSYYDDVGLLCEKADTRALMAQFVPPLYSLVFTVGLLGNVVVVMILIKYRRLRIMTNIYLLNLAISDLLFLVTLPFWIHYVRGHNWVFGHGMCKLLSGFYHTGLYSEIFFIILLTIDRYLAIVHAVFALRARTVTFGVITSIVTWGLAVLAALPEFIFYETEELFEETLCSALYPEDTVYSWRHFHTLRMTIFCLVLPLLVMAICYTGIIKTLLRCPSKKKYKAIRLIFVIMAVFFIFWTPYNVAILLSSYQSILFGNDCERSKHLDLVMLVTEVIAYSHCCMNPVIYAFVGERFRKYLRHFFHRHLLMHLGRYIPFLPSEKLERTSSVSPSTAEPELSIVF

Compound | weight change (gain) due to vapor sorption ([1]; hydrobromide) | weight change (gain) due to vapor sorption [1] | CCR3 antagonism / inhibition of CCR3-ligand binding [2]
Br.O=C(O)Cc1csc(SCC(=O)NC[C@H]2CN(Cc3ccc(Cl)c(Cl)c3)CCO2)n1 [hydrobromide Form II crystal, (2S)-[4-(carboxymethyl)thiazol-2-ylthio]-N-{[4-(3,4-dichlorobenzyl)morpholin-2-yl]methyl}acetamide hydrobromide] | 1.4% | – | –
Br.O=C(O)Cc1csc(SCC(=O)NC[C@H]2CN(Cc3ccc(Cl)c(Cl)c3)CCO2)n1 [hydrobromide Form I crystal, (2S)-[4-(carboxymethyl)thiazol-2-ylthio]-N-{[4-(3,4-dichlorobenzyl)morpholin-2-yl]methyl}acetamide hydrobromide] | 0.1% | – | –
Br.O=C(O)Cc1csc(SCC(=O)NC[C@H]2CN(Cc3ccc(Cl)c(Cl)c3)CCO2)n1 [free form, (2S)-[4-(carboxymethyl)thiazol-2-ylthio]-N-{[4-(3,4-dichlorobenzyl)morpholin-2-yl]methyl}acetamide] | – | 3.3% | inhibit the bond between CCR3 and a ligand thereof, and act as an antagonist
